The values below come from article PMC3386246 (PLoS Pathogens, 2012).

The experiment has as its target T1, NtrC D54E (Escherichia coli, UniProt P0AFB8, D54E).
T1 construct: gene glnG
Description: biochemical. The note with it: read-out: % inhibition at 250 μM.

T1 sequence (P0AFB8 whole entry D54E): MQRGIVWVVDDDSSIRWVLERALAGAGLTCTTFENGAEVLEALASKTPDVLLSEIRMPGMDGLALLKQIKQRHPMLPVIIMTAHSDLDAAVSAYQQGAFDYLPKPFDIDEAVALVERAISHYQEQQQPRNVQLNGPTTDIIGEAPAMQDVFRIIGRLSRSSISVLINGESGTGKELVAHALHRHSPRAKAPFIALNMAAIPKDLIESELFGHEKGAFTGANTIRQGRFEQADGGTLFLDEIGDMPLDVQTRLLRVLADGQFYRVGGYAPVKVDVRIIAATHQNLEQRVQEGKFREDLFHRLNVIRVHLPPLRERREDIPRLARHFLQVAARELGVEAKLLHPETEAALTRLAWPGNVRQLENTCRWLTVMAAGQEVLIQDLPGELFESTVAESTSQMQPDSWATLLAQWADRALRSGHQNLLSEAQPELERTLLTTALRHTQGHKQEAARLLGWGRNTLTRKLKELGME

Consider `CC(C)COC(=O)CSc1n[nH]c(=O)[nH]c1=O` [compound 11], for which the inhibition at 250 µM is around 10%.

For `CC(C)(C)COC(=O)CSc1n[nH]c(=O)[nH]c1=O` [compound 12], the inhibition at 250 µM is around 10%.
